From the NIST ThermoML archive (doi:10.1016/j.fluid.2015.07.036)

Details: for mass density: 100 kPa, Liquid, single sinker densimeter

CCCC[N+]1(C)CCCC1.N#CC(=C=[N-])C#N [1-butyl-1-methylpyrrolidinium tricyanomethanide]
Details	mass density [kg/m3]
263.25 K	1028.92
268.05 K	1026.15
274.1 K	1022.18
278.48 K	1019.29
283.44 K	1015.85
288.48 K	1012.68
292.96 K	1010.28
298.28 K	1006.87
303.21 K	1003.94
308.06 K	1000.78
313.19 K	997.8
317.91 K	995.05
323.17 K	991.69
328.28 K	988.81
333.1 K	985.27
337.77 K	982.59
343.16 K	979.77
347.27 K	977.15
353.46 K	973.98
358.07 K	970.73
364.38 K	967.59

surface tension liquid-gas [mN/m]
Details	Ring tensiometer	wilhelmy plate method
263.32 K	52.96	–
267.79 K	52.64	–
273.16 K	52.22	–
278.42 K	52.03	–
283.38 K	51.73	51.36
288.45 K	–	50.96
288.46 K	51.49	–
292.95 K	51.08	–
292.96 K	–	50.68
298.26 K	50.33	–
298.36 K	–	50.23
303.17 K	49.82	–
303.2 K	–	50.1
308.03 K	–	49.59
308.05 K	49.88	–
313.16 K	49.27	–
313.2 K	–	48.94
317.89 K	48.85	–
317.94 K	–	48.74
323.16 K	48.36	48.3
328.06 K	–	47.88
328.22 K	48.2	–
333.03 K	–	47.55
333.06 K	47.81	–
337.77 K	–	47.21
337.78 K	47.44	–
343.45 K	–	46.74
343.47 K	47.14	–
347.24 K	46.8	–
347.78 K	–	46.41
353.48 K	46.51	–
353.56 K	–	46.01
358.13 K	46.25	–
358.24 K	–	45.64
364.65 K	45.8	–
364.77 K	–	45.17

CCCC[n+]1ccc(C)cc1.N#CC(=C=[N-])C#N [1-butyl-4-methylpyridinium tricyanomethanide]
Details	mass density [kg/m3]
263.45 K	1059.1
267.95 K	1056.28
273.54 K	1052.57
278.65 K	1048.92
283.37 K	1045.67
288.63 K	1042.4
293.52 K	1038.75
298.25 K	1035.8
303.03 K	1032.82
308.01 K	1029.21
313.21 K	1025.76
318.36 K	1022.75
323.38 K	1019.48
327.88 K	1016.44
332.98 K	1013.51
337.59 K	1010.37
342.27 K	1007.38
348.16 K	1003.72
353.42 K	1000.42
358.02 K	997.29
363.31 K	993.79

surface tension liquid-gas [mN/m]
Details	Ring tensiometer	wilhelmy plate method
288.6 K	49.8	–
293.53 K	49.54	49.49
298.24 K	–	49.18
298.25 K	49.45	–
303.01 K	–	48.76
303.02 K	48.8	–
307.98 K	48.37	–
308.01 K	–	48.35
313.22 K	48.23	–
313.27 K	–	47.89
318.3 K	48.03	–
318.35 K	–	47.44
323.38 K	–	47.12
323.41 K	47.28	–
327.86 K	47.1	–
327.98 K	–	46.65
332.9 K	–	46.21
332.94 K	46.55	–
337.57 K	46.06	–
337.68 K	–	45.88
344.17 K	–	45.37
344.19 K	45.74	–
348.14 K	45.27	–
348.15 K	–	45.03
353.35 K	44.97	–
353.43 K	–	44.52
358.06 K	44.65	–
358.09 K	–	44.17
363.37 K	44.18	–
363.55 K	–	43.66

CCn1cc[n+](C)c1.N#C[C-](C#N)C#N [1-ethyl-3-methyl-1H-imidazolium tricyanomethanide]
Details	mass density [kg/m3]
262.68 K	1106.12
268.65 K	1101.93
273.46 K	1098.21
278.14 K	1095.15
283.27 K	1091.23
288.08 K	1088.11
293.16 K	1084.64
298.19 K	1081
303.27 K	1077.46
308.21 K	1073.93
313.21 K	1070.64
318.2 K	1067.14
323.32 K	1063.82
327.9 K	1060.39
333.05 K	1057.29
338.17 K	1053.46
342.95 K	1050.5
348.05 K	1047.15
352.71 K	1043.86
358.12 K	1040.23
364.84 K	1035.96

Details	surface tension liquid-gas [mN/m]
283.22 K, wilhelmy plate method	50.62
283.25 K, Ring tensiometer	50.71
288.01 K, wilhelmy plate method	50.33
288.03 K, Ring tensiometer	50.29
293.17 K, Ring tensiometer	49.61
293.19 K, wilhelmy plate method	49.74
298.13 K, Ring tensiometer	49.45
298.15 K, wilhelmy plate method	49.4
303.06 K, Ring tensiometer	48.87
303.07 K, wilhelmy plate method	48.89
308.18 K, Ring tensiometer	48.37
308.19 K, wilhelmy plate method	48.42
313.19 K, wilhelmy plate method	48.06
313.27 K, Ring tensiometer	47.99
318.16 K, wilhelmy plate method	47.48
318.18 K, Ring tensiometer	47.44
323.26 K, Ring tensiometer	46.86
323.3 K, wilhelmy plate method	47.14
327.9 K, wilhelmy plate method	46.7
328.44 K, Ring tensiometer	46.65
333.28 K, Ring tensiometer	46.24
333.4 K, wilhelmy plate method	46.16
338.24 K, wilhelmy plate method	45.83
338.25 K, Ring tensiometer	45.72
343.18 K, Ring tensiometer	45.39
343.21 K, wilhelmy plate method	45.31
347.97 K, Ring tensiometer	44.69
347.98 K, wilhelmy plate method	44.86
352.81 K, Ring tensiometer	44.55
352.89 K, wilhelmy plate method	44.44
358.17 K, Ring tensiometer	44.06
358.44 K, wilhelmy plate method	43.93
365.18 K, Ring tensiometer	43.3
365.23 K, wilhelmy plate method	43.29
